{"source": "patent US20250276009A1", "about": "“Therapeutic use of hydrogen sulfide in frostbite injury” ([(The)] London Health Sciences Centre Research Inc., priority 2024, published 2025)", "key": {"KI-67": {"test_system": "KI-67", "assay": "Immunofluorescence staining of frostbite wound tissue, day 15: proliferation marker", "type": "in vivo, C57BL/6 mice (Mus musculus)", "details": "for cell proliferation compared to vehicle control: daily topical in vehicle cream, day 15, p<0.001", "experimental": "(§1) Based on a previously validated model [1], 100% ceramic magnets (diameter 18.0 mm, thickness 5.0 mm, weight 4.5 g) were used to induce frostbite injury. Magnets were frozen in dry ice (−80° C.) prior to animal skin preparation. The dorsal skin of C57BL/6 mice (Mus musculus) was pinched to create a skin fold and a silicone sheet was placed underneath as illustrated in FIG. 1D. The silicone sheet acted as a barrier to prevent the mice from possible systemic hypothermia while creating a precise injury and maximizing survival. Two frozen magnets were then placed on the skin from opposite sides of the skin fold such that they adhered with the middle of the circle outline at the peak of the fold's center as described by Auerbach et al., [1] and illustrated in FIG. 1D. After 1 minute, the magnets were removed and new frozen magnets simultaneously placed in order to keep the freezing temperature of the magnets consistent and ensured that no thawing of the skin occurred. A total of 3 magnet exchange cycles occurred in order to induce frostbite injury to the mice for 3 minutes after which the skin was allowed to thaw completely. […] The animals were placed on a heating pad set to 37° C. to mitigate the risk of death due to systemic hypothermia. Upon induction of frostbite injury, the mice were randomly assigned to the following groups: vehicle cream control, 200 nM AP39 plus vehicle cream, 1 μM AP39 plus vehicle cream, 150 μM STS plus vehicle cream, 200 μmol/kg GYY4137 plus vehicle cream, and received daily topical application of vehicle cream without H2S donor, vehicle cream containing 200 nM AP39 (200 μL), vehicle cream containing 1 μM AP39 (200 μL), vehicle cream containing 150 μM STS (200 μL) and vehicle cream containing 200 μmol/kg GYY4137 (200 μL) respectively until time of sacrifice.\n(§2) Post-procedure analgesia included administration of meloxicam at 1 mg/kg/day for 3 days. Another group of mice that received no frostbite injury or room temperature magnet placement served as healthy controls. All groups of mice were sacrificed by CO2 euthanasia on day 15 after frostbite induction or room temperature magnet placement, and samples of the injured dorsal skin tissue were collected and stored in 10% neutral buffered formalin for histopathological analysis. The animals were euthanized on day 15 because this is the time point at which markers of wound healing were expected to be best seen in the wound as previously reported [5].\n(§3) Immunofluorescence staining was performed to detect the expression of cleaved caspase-3 (1:100; a marker for apoptosis and is being used to assess frostbite damage), CD31 (1:100; a marker of vascularization and angiogenesis, as it is found on early endothelial cells), KI-67 (1:50; a marker of proliferation, which is abundant in a healing wound as granulation tissue forms and re-epithelialization occurs), fibronectin (1:100; secreted by fibroblasts to generate granulation tissue, which is the new connective tissue that covers a wound.), cytokeratin (1:200; a marker of differentiation and proliferation of keratinocytes, which are important for re-epithelialization of a wound) and CD163 (1:200; a macrophage-specific marker during wound healing) [7, 8]. These antibodies were purchased from Abcam in Toronto, Canada to examine the degree of frostbite injury as well as important healing stages including angiogenesis, re-epithelialization, granulation tissue formation and inflammation. […]"}, "CD31": {"test_system": "CD31", "assay": "Immunofluorescence staining of frostbite wound tissue, day 15: vascularization and angiogenesis marker", "type": "in vivo, C57BL/6 mice (Mus musculus)", "details": "for angiogenesis compared to vehicle control: daily topical in vehicle cream, day 15, p<0.01", "experimental": "as §1, §2\n(§4) Immunofluorescence staining was performed to detect the expression of cleaved caspase-3 (1:100; a marker for apoptosis and is being used to assess frostbite damage), CD31 (1:100; a marker of vascularization and angiogenesis, as it is found on early endothelial cells), KI-67 (1:50; a marker of proliferation, which is abundant in a healing wound as granulation tissue forms and re-epithelialization occurs), fibronectin (1:100; secreted by fibroblasts to generate granulation tissue, which is the new connective tissue that covers a wound.), cytokeratin (1:200; a marker of differentiation and proliferation of keratinocytes, which are important for re-epithelialization of a wound) and CD163 (1:200; a macrophage-specific marker during wound healing) [7, 8]. These antibodies were purchased from Abcam in Toronto, Canada to examine the degree of frostbite injury as well as important healing stages including angiogenesis, re-epithelialization, granulation tissue formation and inflammation. Following a rehydration step in xylene and decreasing series of alcohol (100%, 95%, 70% and 50%) and de-ionized water, the tissue sections were washed with 1× phosphate buffered saline (PBS) for 10 minutes."}, "[1]": {"test_system": "frostbite injury on the dorsal skin of C57BL/6 mice", "assay": "Histopathological scoring (H&E) of frostbite wound tissue, day 15", "type": "in vivo, C57BL/6 mice (Mus musculus)", "details": "for progress of frostbite wound healing phase (histopathology, collective): daily topical in vehicle cream, day 15; for chronic inflammation (histological score 0-3) vs vehicle control: 200 μmol/kg GYY4137 or 150 μM STS", "method": "The formalin-fixed skin tissue samples were embedded in paraffin blocks and sectioned at 8-μm thick on a microtome and collected on SuperFrost Plus® glass slides (J1800AMNZ, Thermo Fisher Scientific Inc., Germany). Histology was performed on the tissue sections using hematoxylin and eosin (H&E) staining to visualize general tissue morphology and assess the degree of tissue injury. A modified version of a previously developed histological scoring system established by Abramov et al was used for this study. The histopathological scoring was assessed blindly by a dermatopathologist for 5 parameters of healing (acute inflammation, chronic inflammation, amount of granulation tissue, fibroblast maturation and re-epithelialization) and assigned a score as per the following scheme: 0=None; 1=Scant; 2=Moderate; 3=Abundant. Acute inflammation was scored based on the presence of neutrophils while chronic inflammation was evaluated based on the presence of plasma cells and monocytes. Fibroblast maturation was determined on the basis of shape and alignment of these cells."}, "CD163": {"test_system": "CD163", "assay": "Immunofluorescence staining of frostbite wound tissue, day 15: macrophage-specific marker", "type": "in vivo, C57BL/6 mice (Mus musculus)", "details": "for CD163 expression: day 15", "experimental": "as §1, §2, §3"}, "cleaved caspase-3": {"test_system": "cleaved caspase-3", "assay": "Immunofluorescence staining of frostbite wound tissue, day 15: apoptosis marker", "type": "in vivo, C57BL/6 mice (Mus musculus)", "details": "daily topical in vehicle cream, day 15, vs vehicle control", "experimental": "as §1\nAnother group of mice that received no frostbite injury or room temperature magnet placement served as healthy controls. […]"}, "fibronectin": {"test_system": "fibronectin", "assay": "Immunofluorescence staining of frostbite wound tissue, day 15: granulation tissue marker", "type": "in vivo, C57BL/6 mice (Mus musculus)", "details": "for granulation tissue formation compared to vehicle control: daily topical in vehicle cream, day 15, p<0.001; for fibronectin expression: day 15", "experimental": "as §1, §2, §4"}, "[2]": {"test_system": "frostbite injury on the dorsal skin of C57BL/6 mice", "assay": "Frostbite wound size / wound healing after daily topical application of H2S donor in vehicle cream", "type": "in vivo, C57BL/6 mice (Mus musculus)", "details": "for frostbite wound size compared to vehicle-treated control mice / reduction of frostbite wound from day 4 to day 15 versus vehicle control: daily topical; for frostbite wound healing compared to vehicle control group: daily topical in vehicle cream until day 15; for reduction of frostbite wound from day 4 to day 15 versus vehicle control: 150 μM STS or 200 μmol/kg GYY4137 in hyaluronan/phosphatidylethanolamine vehicle cream", "description": "The Animal Use Committee of the University of Western Ontario approved all experimental procedures. The experimental procedures were considered as Category D from the Canadian Council of Animal Care's Categories of Invasiveness for Animal Experiments. A total of 25 […] mice aged between 8-10 weeks old were obtained from Charles River Canada (Senneville, Quebec, Canada) and housed 5 per cage under a 12-hour light/dark cycle at the Health Sciences Animal Care Facility at the University of Western Ontario (London, Ontario, Canada). Mice were randomly assigned to 5 groups being healthy control (n=5), crush control (n=5), vehicle control (n=5), 200 nM AP39 (n=5) and 1 μM AP39 (n=5).\nTo ease the process of skin preparation, mice were initially anesthetized with a combination of 20 mg/ml xylazine and 100 mg/mL ketamine intraperitoneally, and the dorsal fur of the animals were shaved using electric clippers from the top of the hind legs to the base of the neck. A depilatory cream was then used to remove any fur still remaining. General anesthesia was maintained by inhalation of 5% isoflurane and oxygen delivered at 400 mL/minute to minimize the time of recovery post-anesthesia. Following complete fur removal, the skin of the animal was cleaned completely of the hair removal cream using an alcohol prep pad. Next, a silicone sheet was used as a template to trace a uniform circle on the surface of the skin using a permanent marker. The circular outline on the back of the animal was used as a guide during frostbite injury (see FIGS. 1A to 1E).\nThe vehicle cream containing hyaluronan and phosphatidylethanolamine (referred to as HEPE) as active ingredients, was provided by Dr. Eva Turley, and allowed for delivery of AP39 to the vascularized layers of the dermis. AP39 was generously provided by Dr. Matthew Whiteman (Exeter, UK) and diluted to a stock concentration of 1 mM in DMSO. […] To prepare the cream+H2S donor compound, the H2S donor was added via micropipette combined by stirring and subsequent mixing using a vortex device to final concentrations of 200 nM, 1 µM and 150 μM."}, "cytokeratin": {"test_system": "cytokeratin", "details": "day 15", "experimental": "as §1\nPost-procedure analgesia included administration of meloxicam at 1 mg/kg/day for 3 days. Another group of mice that received no frostbite injury or room temperature magnet placement served as healthy controls. All groups of mice were sacrificed by CO2 euthanasia on day 15 after frostbite induction or room temperature magnet placement, and samples of the injured dorsal skin tissue were collected and stored in 10% neutral buffered formalin for histopathological analysis. The animals were euthanized on day 15 because this is the time point at which markers of wound healing were expected to be best seen in the wound as previously reported [5]. […]"}, "[3]": {"details": "1 μM AP39, relative to 200 nM AP39, day 15, p<0.05"}, "[4]": {"details": "1 μM AP39 vs 200 nM AP39 and vehicle control, day 15, p<0.05"}, "[5]": {"details": "150 μM STS in Aveeno vs Aveeno without STS"}, "[6]": {"details": "150 μM STS in Dove vs Dove without STS"}, "[7]": {"details": "150 μM STS in Neutrogena vs Neutrogena without STS"}, "[8]": {"details": "150 μM STS in Nivea vs Nivea without STS"}, "[9]": {"details": "150 μM STS with Nivea, vs Nivea alone"}}, "note": "Like-named read-outs stand apart in the source and are kept apart here."}
{"molecule": "O=C(CCCCCCCCC[P+](c1ccccc1)(c1ccccc1)c1ccccc1)Oc1ccc(-c2cc(=S)ss2)cc1.[Br-]", "note": "[AP39, (10-oxo-10-(4-(3-thioxo-3H-1,2-dithiol-5-yl)phenoxy)decyl)triphenylphosphonium bromide]", "values": [{"measurement": "KI-67 expression", "setting": "KI-67; 200 nM AP39, day 15, p<0.05", "value": "markedly expressed"}, {"measurement": "KI-67 expression", "setting": "KI-67; [3]", "value": "significantly reduced"}, {"measurement": "cell proliferation compared to vehicle control", "setting": "KI-67", "value": "improved"}, {"measurement": "CD31 expression", "setting": "CD31; 200 nM AP39, day 15, p<0.05", "value": "markedly expressed"}, {"measurement": "CD31 expression", "setting": "CD31; [3]", "value": "significantly reduced"}, {"measurement": "angiogenesis compared to vehicle control", "setting": "CD31", "value": "improved"}, {"measurement": "chronic inflammation (histological score 0-3)", "setting": "[1]; 200 nM AP39, day 15, p>0.05", "value": "did not change"}, {"measurement": "fibroblast maturation (histological score 0-3)", "setting": "[1]; 200 nM AP39 vs 1 μM AP39 and vehicle control, day 15, p<0.05", "value": "highest"}, {"measurement": "chronic inflammation (histological score 0-3)", "setting": "[1]; 1 μM AP39, day 15, p>0.05", "value": "did not change"}, {"measurement": "acute inflammation (histological score 0-3)", "setting": "[1]; [4]", "value": "significantly greater"}, {"measurement": "amount of granulation tissue (histological score 0-3)", "setting": "[1]; [4]", "value": "markedly increased"}, {"measurement": "wound re-epithelialization (histological score 0-3)", "setting": "[1]; AP39 (200 nM and 1 μM) vs vehicle control, day 15, p>0.05", "value": "increased wound re-epithelialization (epithelial restitution) albeit not significantly different"}, {"measurement": "progress of frostbite wound healing phase (histopathology, collective)", "setting": "[1]", "value": "hastened frostbite wound healing from inflammatory to proliferative phase"}, {"measurement": "CD163 expression (M2-like anti-inflammatory macrophages)", "setting": "CD163; 200 nM AP39, day 15", "value": "increased anti-inflammatory activity"}, {"measurement": "apoptosis in frostbite injury (cleaved caspase-3 expression)", "setting": "cleaved caspase-3", "value": "no effect"}, {"measurement": "fibronectin expression compared to vehicle control mice", "setting": "fibronectin; 200 nM AP39, day 15", "value": "significantly increased expression"}, {"measurement": "fibronectin expression compared to vehicle control mice", "setting": "fibronectin; 1 μM AP39, day 15", "value": "significantly increased expression"}, {"measurement": "granulation tissue formation compared to vehicle control", "setting": "fibronectin", "value": "improved"}, {"measurement": "frostbite wound size compared to vehicle-treated control mice", "setting": "[2]; 200 nM AP39 in vehicle cream containing hyaluronan and phosphatidylethanolamine, day 4 to day 15", "value": "progressively reduced wound size"}, {"measurement": "frostbite wound size compared to vehicle-treated control mice", "setting": "[2]; 1 μM AP39 in vehicle cream containing hyaluronan and phosphatidylethanolamine, day 4 to day 15", "value": "progressively reduced wound size"}, {"measurement": "frostbite wound healing compared to vehicle control group", "setting": "[2]", "value": "improved wound healing"}]}
{"molecule": "C1COCCN1.COc1ccc(P(=S)(S)N2CCOCC2)cc1", "note": "(centres unmarked) [GYY4137]", "values": [{"measurement": "cell proliferation compared to vehicle control", "setting": "KI-67", "value": "improved"}, {"measurement": "angiogenesis compared to vehicle control", "setting": "CD31", "value": "improved"}, {"measurement": "chronic inflammation (histological score 0-3) vs vehicle control", "setting": "[1]; day 15, p>0.05", "value": "did not show significant difference"}, {"measurement": "progress of frostbite wound healing phase (histopathology, collective)", "setting": "[1]", "value": "hastened frostbite wound healing from inflammatory to proliferative phase"}, {"measurement": "apoptosis in frostbite injury (cleaved caspase-3 expression)", "setting": "cleaved caspase-3", "value": "no effect"}, {"measurement": "granulation tissue formation compared to vehicle control", "setting": "fibronectin", "value": "improved"}, {"measurement": "reduction of frostbite wound from day 4 to day 15 versus vehicle control", "setting": "[2]", "value": "slightly smaller than that of the vehicle control"}, {"measurement": "frostbite wound healing compared to vehicle control group", "setting": "[2]", "value": "improved wound healing"}]}
{"molecule": "O=S([O-])([O-])=S.[Na+].[Na+]", "note": "[STS, sodium thiosulfate]", "values": [{"measurement": "cell proliferation compared to vehicle control", "setting": "KI-67", "value": "improved"}, {"measurement": "CD31 expression", "setting": "CD31; 150 μM STS in Aveeno vs Aveeno without STS, day 15", "value": "significant upregulation"}, {"measurement": "CD31 expression", "setting": "CD31; 150 μM STS in Dove vs Dove without STS, day 15", "value": "significant upregulation"}, {"measurement": "CD31 expression", "setting": "CD31; 150 μM STS in Neutrogena vs Neutrogena without STS, day 15", "value": "No significant change"}, {"measurement": "CD31 expression", "setting": "CD31; 150 μM STS in Nivea vs Nivea without STS, day 15", "value": "significant upregulation"}, {"measurement": "angiogenesis compared to vehicle control", "setting": "CD31", "value": "improved"}, {"measurement": "chronic inflammation (histological score 0-3) vs vehicle control", "setting": "[1]; day 15, p>0.05", "value": "did not show significant difference"}, {"measurement": "progress of frostbite wound healing phase (histopathology, collective)", "setting": "[1]", "value": "hastened frostbite wound healing from inflammatory to proliferative phase"}, {"measurement": "CD163 expression", "setting": "CD163; [5]", "value": "significant increase"}, {"measurement": "CD163 expression", "setting": "CD163; [6]", "value": "significant increase"}, {"measurement": "CD163 expression", "setting": "CD163; [7]", "value": "decrease in CD163 expression albeit not significant"}, {"measurement": "CD163 expression", "setting": "CD163; [8]", "value": "significant increase"}, {"measurement": "apoptosis in frostbite injury (cleaved caspase-3 expression)", "setting": "cleaved caspase-3", "value": "no effect"}, {"measurement": "fibronectin expression", "setting": "fibronectin; [5]", "value": "significantly increased"}, {"measurement": "fibronectin expression", "setting": "fibronectin; [6]", "value": "did not increase fibronectin expression significantly"}, {"measurement": "fibronectin expression", "setting": "fibronectin; [7]", "value": "did not increase fibronectin expression significantly"}, {"measurement": "fibronectin expression", "setting": "fibronectin; [8]", "value": "significantly increased"}, {"measurement": "granulation tissue formation compared to vehicle control", "setting": "fibronectin", "value": "improved"}, {"measurement": "wound size compared to the corresponding vehicle control without STS", "setting": "[2]; 150 μM STS in commercially available creams (Aveeno, Dove, Neutrogena, Nivea), day 4 to day 15", "value": "progressively reduced wound size"}, {"measurement": "reduction of frostbite wound from day 4 to day 15 versus vehicle control", "setting": "[2]", "value": "slightly smaller than that of the vehicle control"}, {"measurement": "wound size, day 15", "setting": "[2]; 150 μM STS with Aveeno, vs Aveeno alone", "value": "reduced wound size"}, {"measurement": "wound size, day 15", "setting": "[2]; 150 μM STS with Dove, vs Dove alone", "value": "reduced wound size"}, {"measurement": "wound size, day 4", "setting": "[2]; [9]", "value": "reduced wound size"}, {"measurement": "wound size, day 15", "setting": "[2]; [9]", "value": "reduced wound size"}, {"measurement": "wound healing, comparison of delivery creams", "setting": "[2]; STS via Aveeno and Nivea creams compared to Dove and Neutrogena", "value": "improved wound healing compared to Dove® and Neutrogena®"}, {"measurement": "frostbite wound healing compared to vehicle control group", "setting": "[2]", "value": "improved wound healing"}, {"measurement": "cytokeratin expression", "setting": "cytokeratin; [5]", "value": "significantly increased"}, {"measurement": "cytokeratin expression", "setting": "cytokeratin; [6]", "value": "No significant change"}, {"measurement": "cytokeratin expression", "setting": "cytokeratin; [7]", "value": "significantly increased"}, {"measurement": "cytokeratin expression", "setting": "cytokeratin; [8]", "value": "significantly increased"}]}
